{"source": "paper PMC6426458", "about": "(Science Advances, 2019)", "key": {"[1]": {"molecular_target": "T1, RelMtb (truncated, residues 53 to 446) (Mycobacterium tuberculosis, UniProt P9WHG9)", "T1 sequence (P9WHG9 1-394)": "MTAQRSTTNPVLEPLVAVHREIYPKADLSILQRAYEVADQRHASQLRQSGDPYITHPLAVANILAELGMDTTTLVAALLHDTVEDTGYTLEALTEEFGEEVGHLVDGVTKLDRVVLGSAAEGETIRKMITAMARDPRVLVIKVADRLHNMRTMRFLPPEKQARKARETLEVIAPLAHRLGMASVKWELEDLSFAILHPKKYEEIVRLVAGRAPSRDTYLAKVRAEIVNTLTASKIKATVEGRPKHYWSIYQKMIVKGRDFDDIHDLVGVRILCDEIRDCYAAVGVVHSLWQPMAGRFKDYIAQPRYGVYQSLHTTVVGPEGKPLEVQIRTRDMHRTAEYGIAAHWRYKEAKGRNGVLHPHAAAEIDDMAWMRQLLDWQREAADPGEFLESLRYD", "experiment": "RelMtb enzymatic fluorescence polarization", "format": "biochemical"}, "WT Mtb H37Rv": {"system": "WT Mtb H37Rv", "format": "cell-based, Mycobacterium tuberculosis"}, "[2]": {"system": "nutrient-starved empty vector control (CDC1551)", "format": "cell-based, Mycobacterium tuberculosis", "settings": "INH 15.36 μg/ml, 7 days of exposure"}, "[3]": {"system": "Mtb following exposure to NS", "settings": "cited from earlier work"}, "Δrel": {"system": "Δrel", "parameters": "species or system Mycobacterium tuberculosis", "settings": "in vivo"}, "rel Comp": {"system": "rel Comp", "parameters": "species or system Mycobacterium tuberculosis", "settings": "in vivo"}, "[4]": {"system": "rel Comp (relMtb-complemented strain)", "format": "cell-based, Mycobacterium tuberculosis"}, "relMtb-deficient Mtb": {"system": "relMtb-deficient Mtb", "settings": "nutrient-rich broth; cited from earlier work"}, "WT H37Rv": {"system": "WT H37Rv", "parameters": "species or system Mycobacterium tuberculosis", "settings": "in vivo"}, "[5]": {"system": "Δrel (H37Rv deficient in Rv2583c/relMtb)", "format": "cell-based, Mycobacterium tuberculosis", "settings": "nutrient-rich broth"}}, "data": [{"smiles": "Nc1ncnc2c1ncn2[C@@H]1O[C@H](COP(=O)(O)CP(=O)(O)OP(=O)(O)O)[C@@H](O)[C@H]1O", "note": "[AMPCPP, α,β-methylene analogue of ATP]", "values": [{"measurement": "IC50", "setting": "[1]", "value": 6.2, "unit": "mM"}]}, {"smiles": "Nc1nc2c(ncn2[C@@H]2O[C@H](COP(=O)(O)OP(=O)(O)OP(=O)(O)O)C[C@H]2O)c(=O)[nH]1", "note": "[3′-dGTP]", "values": [{"measurement": "IC50", "setting": "[1]", "value": 4, "unit": "mM"}]}, {"smiles": "NNC(=O)c1ccncc1", "note": "[INH, isoniazid]", "values": [{"measurement": "MBC of INH (concentration required to kill 99%)", "setting": "WT Mtb H37Rv", "value": 0.06, "unit": "µg/mL"}, {"measurement": "fold decrease of MBC of INH", "setting": "WT Mtb H37Rv", "value": 16, "unit": "fold"}, {"measurement": "fold increase of MBC of INH", "setting": "WT Mtb H37Rv", "value": 512, "unit": "fold"}, {"measurement": "mean reduction of bacterial density (CFU/ml)", "setting": "[2]", "value": 1.43, "unit": "log10 CFU"}, {"measurement": "fold increase in the MBC of INH", "setting": "[3]", "value": "> 100", "unit": "fold"}, {"measurement": "bacilli killed in the lungs during 2 weeks of treatment", "setting": "Δrel", "value": 2.03, "unit": "log10"}, {"measurement": "reduction of lung bacterial load", "setting": "rel Comp", "value": 0.48, "unit": "log10"}, {"measurement": "fold increase of MBC of INH", "setting": "[4]; 7 days of NS versus nutrient-rich broth", "value": 512, "unit": "fold"}, {"measurement": "fold decrease of MBC of INH", "setting": "[4]; 7 days of NS, in the presence of 4 μM X9", "value": 16, "unit": "fold"}, {"measurement": "MBC of INH (concentration required to kill 99%)", "setting": "[4]; nutrient-rich broth", "value": 0.06, "unit": "µg/mL"}, {"measurement": "MIC against relMtb-deficient Mtb compared with the WT strain", "setting": "relMtb-deficient Mtb", "value": "the same as that against the WT strain"}, {"measurement": "reduction of lung bacillary burden relative to the start of treatment", "setting": "WT H37Rv", "value": 0.11, "unit": "log10"}, {"measurement": "MBC of INH (concentration required to kill 99%)", "setting": "[5]", "value": 0.06, "unit": "µg/mL"}]}, {"smiles": "CO[C@H]1/C=C/O[C@@]2(C)Oc3c(C)c(O)c4c(O)c(c(/C=N/N5CCN(C)CC5)c(O)c4c3C2=O)NC(=O)/C(C)=C\\C=C\\[C@H](C)[C@H](O)[C@@H](C)[C@@H](O)[C@@H](C)[C@H](OC(C)=O)[C@@H]1C", "note": "[rifampin]", "values": [{"measurement": "MIC against relMtb-deficient Mtb compared with the WT strain", "setting": "relMtb-deficient Mtb", "value": "the same as that against the WT strain"}]}, {"smiles": "Nc1nc2c(ncn2[C@@H]2O[C@H](COP(=O)(O)OP(=O)(O)OP(=O)(O)OP(=O)(O)OC[C@H]3O[C@@H](n4cnc5c(N)ncnc54)[C@H](O)[C@@H]3O)[C@@H](O)[C@H]2O)c(=O)[nH]1", "note": "[AP4G]", "values": [{"measurement": "IC50", "setting": "[1]", "value": 1.8, "unit": "mM"}]}]}
